Reference: the CheMixHub viscosity set

Assay: xn = mol fraction of the nth substance listed

CCOC=O + CC(C)O
viscosity [mPa·s], 100 kPa
Settings | x1 = 0.0814 | x1 = 0.1589 | x1 = 0.2351 | x1 = 0.3413 | x1 = 0.4351 | x1 = 0.5587 | x1 = 0.6507 | x1 = 0.7349 | x1 = 0.8498 | x1 = 0.9394
293.15 K | 1.77 | 1.33 | 1.06 | 0.82 | 0.68 | 0.57 | 0.52 | 0.48 | 0.44 | 0.42
298.15 K | 1.53 | 1.18 | 0.95 | 0.76 | 0.64 | 0.54 | 0.49 | 0.46 | 0.42 | 0.4
303.15 K | 1.35 | 1.06 | 0.87 | 0.7 | 0.59 | 0.51 | 0.46 | 0.43 | 0.4 | 0.38
308.15 K | 1.19 | 0.95 | 0.79 | 0.65 | 0.56 | 0.48 | 0.44 | 0.41 | 0.38 | 0.36
313.15 K | 1.05 | 0.85 | 0.71 | 0.59 | 0.52 | 0.45 | 0.41 | 0.39 | 0.36 | 0.34
318.15 K | 0.92 | 0.75 | 0.64 | 0.54 | 0.48 | 0.42 | 0.39 | 0.36 | 0.34 | 0.32
323.15 K | 0.81 | 0.67 | 0.57 | 0.49 | 0.44 | 0.38 | 0.36 | 0.33 | 0.31 | 0.3

CCOC(N)=O + O
viscosity [mPa·s], 101.33 kPa
Settings | x1 = 0.01112 | x1 = 0.02393 | x1 = 0.03411 | x1 = 0.0497 | x1 = 0.06189 | x1 = 0.07566 | x1 = 0.1253
293.15 K | 1.122 | 1.253 | 1.356 | 1.505 | 1.618 | 1.743 | 2.156
298.15 K | 0.9919 | 1.102 | 1.191 | 1.314 | 1.409 | 1.513 | 1.86

ClCCl + Cc1ccccc1C
101 kPa
Settings | viscosity [mPa·s]
293.15 K, x1 = 0.3503 | 0.679
293.15 K, x1 = 0.4307 | 0.648
293.15 K, x1 = 0.4992 | 0.623
293.15 K, x1 = 0.5657 | 0.594
293.15 K, x1 = 0.6558 | 0.561
293.15 K, x1 = 0.7632 | 0.521
293.15 K, x1 = 0.8524 | 0.49
298.15 K, x1 = 0.2305 | 0.677
298.15 K, x1 = 0.3611 | 0.634
298.15 K, x1 = 0.449 | 0.602
298.15 K, x1 = 0.5343 | 0.572
298.15 K, x1 = 0.6293 | 0.542
298.15 K, x1 = 0.696 | 0.519
298.15 K, x1 = 0.7684 | 0.494
298.15 K, x1 = 0.826 | 0.476
298.15 K, x1 = 0.8658 | 0.465
303.15 K, x1 = 0.236 | 0.644
303.15 K, x1 = 0.3688 | 0.602
303.15 K, x1 = 0.4846 | 0.561
303.15 K, x1 = 0.5645 | 0.531
303.15 K, x1 = 0.6373 | 0.507
303.15 K, x1 = 0.7091 | 0.483
303.15 K, x1 = 0.7766 | 0.462
303.15 K, x1 = 0.8368 | 0.444
303.15 K, x1 = 0.861 | 0.437

ClCCCl + C1CCOC1
303.15 K, 101 kPa
Settings | viscosity [mPa·s]
x2 = 0.0815 | 0.7038
x2 = 0.1436 | 0.6852
x2 = 0.2414 | 0.6571
x2 = 0.3055 | 0.6394
x2 = 0.4137 | 0.6105
x2 = 0.5015 | 0.5879
x2 = 0.6095 | 0.5606
x2 = 0.7289 | 0.5307
x2 = 0.8142 | 0.5097
x2 = 0.9176 | 0.485

COCC(C)OCC(C)OC (centres undefined) + CCCCCCCO
Settings | viscosity [mPa·s]
298.15 K, 101 kPa, x1 = 0.4532 | 1.895

CCC[N+](C)(C)C.O=S(=O)([N-]S(=O)(=O)C(F)(F)F)C(F)(F)F + CCC[N+]1(C)CCCC1.O=S(=O)([N-]S(=O)(=O)C(F)(F)F)C(F)(F)F
viscosity [mPa·s], 101.3 kPa
Settings | x1 = 0.2 | x1 = 0.4 | x1 = 0.6 | x1 = 0.8
293.15 K | 78.4 | 81.2 | 88.3 | 93.6
298.15 K | 62.8 | 64.9 | – | 73.8
303.15 K | 51.1 | 52.5 | 56.3 | 59.2

CCNc1ccccc1 + CCC(=O)O
308.15 K, 101.33 kPa
Settings | viscosity [mPa·s]
x2 = 0.1567 | 1.706
x2 = 0.2906 | 1.897
x2 = 0.4142 | 2.167
x2 = 0.5224 | 2.302
x2 = 0.6217 | 2.533
x2 = 0.7121 | 2.575
x2 = 0.7933 | 2.379
x2 = 0.8787 | 1.916
x2 = 0.9032 | 1.691
x2 = 0.9363 | 1.412
x2 = 0.9694 | 1.113

CCOC=O + c1ccccc1
viscosity [mPa·s], 101 kPa
Settings | x1 = 0.2 | x1 = 0.4 | x1 = 0.5 | x1 = 0.8
293.15 K | 0.558 | 0.501 | 0.482 | 0.435
303.15 K | 0.491 | 0.446 | 0.43 | 0.391
308.15 K | 0.465 | 0.427 | 0.409 | 0.373

CC(=O)O + Cc1cccc(C)c1
viscosity [mPa·s], 101.3 kPa
Settings | x2 = 0.1087 | x2 = 0.218 | x2 = 0.2726 | x2 = 0.3467 | x2 = 0.4518 | x2 = 0.5763 | x2 = 0.6567 | x2 = 0.7671 | x2 = 0.8589
298.15 K | 0.952 | 0.809 | 0.753 | 0.7 | 0.648 | 0.618 | 0.603 | 0.591 | 0.579
303.15 K | 0.861 | 0.746 | 0.707 | 0.655 | 0.615 | 0.582 | 0.568 | 0.554 | 0.545
313.15 K | 0.777 | 0.665 | 0.624 | 0.58 | 0.543 | 0.519 | 0.507 | 0.501 | 0.494
323.15 K | 0.687 | 0.59 | 0.554 | 0.518 | 0.483 | 0.466 | 0.459 | 0.451 | 0.444

C1CCC2=[NH+]CCCN2CC1.c1c[n-]cn1 + CN(C)C=O
298.15 K, 100 kPa
Settings | viscosity [mPa·s]
x1 = 0.0998 | 1.496
x1 = 0.1996 | 2.353
x1 = 0.2995 | 3.64
x1 = 0.3994 | 5.34
x1 = 0.4994 | 7.345
x1 = 0.5994 | 10.26
x1 = 0.6995 | 14.27
x1 = 0.7996 | 19.37
x1 = 0.8998 | 25.32
